13 compounds from patent EP1100483B1, “GLUCOCORTICOID-SELECTIVE ANTI-INFLAMMATORY AGENTS” (Abbott Laboratories, priority 1998, dated 2000) can be followed below.

Broadly, the Ki is the equilibrium dissociation constant of an inhibitor or competing ligand from its target. Low readings indicate a stronger hold on the target, high ones a looser hold on the target.

In this assay the target is T1, human progesterone receptor-A [PRA] isoform (Homo sapiens, UniProt P06401).
T1 construct: purchased Ligand Pharmaceuticals (San Diego, CA); host or cells: insect SF21 cells (baculovirus)
T1 sequence (P06401 1-769 isoform P06401-2): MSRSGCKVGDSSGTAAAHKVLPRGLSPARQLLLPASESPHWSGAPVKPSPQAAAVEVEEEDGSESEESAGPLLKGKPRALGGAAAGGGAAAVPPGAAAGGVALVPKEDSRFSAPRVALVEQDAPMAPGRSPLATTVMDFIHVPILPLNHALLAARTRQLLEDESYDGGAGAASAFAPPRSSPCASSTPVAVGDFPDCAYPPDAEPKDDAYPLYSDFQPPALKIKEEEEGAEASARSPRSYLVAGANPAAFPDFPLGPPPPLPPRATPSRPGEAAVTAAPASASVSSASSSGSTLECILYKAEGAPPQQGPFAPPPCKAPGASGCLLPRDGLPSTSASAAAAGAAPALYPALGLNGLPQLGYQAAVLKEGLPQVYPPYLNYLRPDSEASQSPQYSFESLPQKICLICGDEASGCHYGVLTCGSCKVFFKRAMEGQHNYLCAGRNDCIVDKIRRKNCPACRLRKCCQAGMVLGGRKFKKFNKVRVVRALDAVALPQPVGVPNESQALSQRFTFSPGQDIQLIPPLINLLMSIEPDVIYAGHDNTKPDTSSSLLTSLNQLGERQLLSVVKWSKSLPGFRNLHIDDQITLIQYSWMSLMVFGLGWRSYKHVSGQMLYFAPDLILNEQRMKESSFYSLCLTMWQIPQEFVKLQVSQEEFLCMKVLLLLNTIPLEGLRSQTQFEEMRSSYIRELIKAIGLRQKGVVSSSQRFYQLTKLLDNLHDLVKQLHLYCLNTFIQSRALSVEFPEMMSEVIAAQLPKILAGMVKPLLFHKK
The experiment in a line: progesterone receptor cytosol (PR) binding assay, [3H]-progesterone competition. The conditions noted are these: [3H]Prog ~0.8 nM, 4 °C overnight, Cheng-Prusoff. From the text:
For glucocorticoid receptor (OR) cytosol binding assays, the procedure described in Anal. Biochem. 1970, 37, 244-252, hereby incorporated by reference, was used. Briefly, cytosol preparations of human glucocorticoid receptor-α [GRX] isoform and human progesterone receptor-A [PRA] isoform were obtained from Ligand Pharmaceuticals (San Diego, CA). Both receptor cDNAs were cloned into baculovirus expression vectors and expressed in insect SF21 cells. [^3H]-dexamethasone (Dex, specific activity 82-86 Ci/mmole) and [^3H]-progesterone (Prog, specific activity 97-102 Ci/mmol) were purchased from Amersham Life Sciences (Arlington Heights, IL). Glass fiber type C multiscreen MAFC NOB plates were from Millipore ( Burlington, MA). Hydroxyapatide Bio-Gel HTP gel was obtained from Bio-Rad Laboratories (Hercules. CA). Tris(hydroxymethyl)aminomethane (Tris), ethylenediaminetetraacetic acid (EDTA), glycerol, dithiothreitol (DTT) and sodium moylybdate were obtained from Sigma Chemicals (St. Louis, MO). Microscint-20 scintillation fluid was obtained from Packard Instrument (Meriden, CT).
Stock solutions (32 mM) of compounds were prepared in dimethylsulfoxide (DMSO), and 50X solutions of test compounds were prepared from the 32 mM solution with a 50:50 mixture of DMSO/ethanol. The 50X solution was then diluted with binding buffer that contained 10 mM Tri-HCl, 1.5 mM EDTA, 10% glycerol, 1 mM DTT, 20 mM sodium molybdate. pH 7.5 at 4 °C. 1% DMSO/ethanol was also present in the binding assay.
For progesterone receptor cytosol (PR) binding assays, [^3H]Prog (~36,000 dpm (∼0.8 nM)), PRA cytosol (~40 µg protein), test compounds and binding buffer were mixed in a total volume of 200 µL and incubated at 4 °C overnight in a plate shaker. Specific binding was defined as the difference between binding of [^3H]Prog in the absence and in the presence of 3 µM unlabeled Prog.
After an overnight incubation, 50 µL of hydroxyapatite (25 % weight/volume) slurry were added to each well and plates were incubated for 10 min at 4 °C in a plate shaker. Plates were suctioned with a Millipore vacuum manifold and each well was rinsed with 300 µL of ice-cold binding buffer. A 250 µL aliquot of Packard Microscint-20 was added to each well and the wells were shaken at room temperature for 20 minutes. The amount of radioactivity was determined with a Packard TopCount plate reader.
The Ki of test compounds was determined using the Cheng-Prusoff equation Ki =IC50/(1+[L*]/[KL]) where L* is the concentration of radioligand and KL is the dissociation constant of the radioligand determined from saturation analysis. For GRX, KL was ∼1.5 nM, and for PRA, KL was ~4.5 nM.
In turn, `CNc1ccc(C(c2ccc(N(C)C)cc2)c2cc([N+](=O)[O-])ccc2Cl)cc1` (stereo not shown) [Example 39, 4'-dimethylamino-4"-methylamino-2-chloro-5-nitrotriphenylmethane] displayed a Ki of 510 nM.

In the case of `CN(C)c1ccc(C(c2ccc(N(C)C)cc2)c2cc(Cl)ccc2Cl)cc1` [Example 24, 4',4" bis(dimethylamino)-2,5-dichlorotriphenylmethane], the Ki is 2590 nM.

Consider `CN(CCO)c1ccc(C(c2ccc(N(C)CCO)cc2)c2cc([N+](=O)[O-])ccc2Cl)cc1` [Example 32, 4',4" bis(N-(2-hydroxyethyl) N-methylamino)-2-chloro-5-nitrotriphenylmethane], for which the Ki was determined as 536 nM.

Regarding `O=[N+]([O-])c1ccc(Cl)c(C(c2ccc(NCc3ccccc3)cc2)c2ccc(NCc3ccccc3)cc2)c1` [Example 36, 4',4" bis(N-benzylamino)-2-chloro-5-nitrotriphenylmethane], affinity was put at a Ki of 2590 nM.

With `CN(C)c1ccc(C(Oc2ccccc2)c2cc([N+](=O)[O-])ccc2Cl)cc1` (stereo not shown) [Example 52, phenyl-[(4'-dimethylaminophenyl)-(2-chloro-5-nitrophenyl)methyl] ether], affinity was put at a Ki of 698 nM.

Consider `CNc1ccc(C(c2ccc(NC)cc2)c2cc([N+](=O)[O-])ccc2Cl)cc1` [Example 23, 4',4" bis(methylamino)-2-chloro-5-nitrotriphenylmethane], for which the inhibition constant (Ki) amounted to 624 nM.

On to `CN(C)c1ccc(C(c2ccc(N(C)CCO)cc2)c2cc([N+](=O)[O-])ccc2Cl)cc1` (stereo not shown) [Example 42, 4'-dimethylamino-4"-(N-methyl-N-(2-hydroxyethyl)amino)-2-chloro-5-nitrotriphenylmethane], for which the affinity corresponds to a Ki of 187 nM.

Consider `CC(=O)OCCN(C)c1ccc(C(c2ccc(N(C)C)cc2)c2cc([N+](=O)[O-])ccc2Cl)cc1` (stereo not shown) [Example 51, 4'-dimethylamino-4"-(N-methyl-N-(2-acetoxyethyl)amino)-2-chloro-5-nitrotriphenylmethane], for which the Ki is 1080 nM.

The compound `CC(=O)OCCN(C)c1ccc(C(c2ccc(N(C)CCOC(C)=O)cc2)c2cc([N+](=O)[O-])ccc2Cl)cc1` [Example 31, 4',4" bis(N-(2-acetoxyethyl) N-methylamino)-2-chloro-5-nitrotriphenylmethane] yielded a Ki of 2680 nM.

`CN(C)c1ccc(C(c2ccc(N(C)C)cc2)c2cc([N+](=O)[O-])ccc2Cl)cc1` [Example 1, 4',4" bis(dimethylamino)-2-chloro-5-nitrotriphenylmethane] gave an inhibitory constant (Ki) of over 10000 nM.

`CNc1ccc(C(c2ccc(N(C)CCOC(C)=O)cc2)c2cc([N+](=O)[O-])ccc2Cl)cc1` (stereo not shown) [Example 49, 4'-methylamino-4"-(N-(2-acetoxyethyl)-N-methylamino)-2-chloro-5-nitrotriphenylmethane]: the Ki stood at 241 nM. This counts as sub-micromolar.

As for `CN(C)c1ccc(C(Sc2ccccc2)c2cc([N+](=O)[O-])ccc2Cl)cc1` (stereo not shown) [Example 54, phenyl-[(4'-dimethylaminophenyl)-(2-chloro-5-nitrophenyl)methyl]thioether], the affinity corresponds to a Ki of 2590 nM.

In turn, `CNc1ccc(C(c2ccc(NC)cc2)c2cc(Cl)ccc2Cl)cc1` [Example 27, 4',4" bis(methylamino)-2,5-dichlorotriphenylmethane] yielded a Ki of 318 nM.
